Measurements: patent publication US20230203098A1, “HUMAN TRANSFERRIN RECEPTOR BINDING PEPTIDE” (priority 2020, published 2023)
pKd: −log10 of the molar value. Read-outs that look alike come from different tables or passages of the source. Values belong to the compound of their own block, whether it stands above or below them. Where a SMILES comes first, the peptide text is derived from it. Bridges are numbered along the chain shown (N, C = ends). [ ]: non-standard residue; d: D form. PEG12 = NCCOCCOCCOCCOCCOCCOCCOCCOCCOCCOCCOCCOCCC(=O)O; NMeY = CN[C@@H](Cc1ccc(O)cc1)C(=O)O; NMeF = CN[C@@H](Cc1ccccc1)C(=O)O; Ahp(2) = CCCCC[C@H](N)C(=O)O

Target: transferrin receptor (hTfR) (Homo sapiens, UniProt P02786)
Assay: Intermolecular interaction evaluation test between transferrin receptor (hTfR) and peptide by surface plasmon resonance (SPR)
Format: binding
In short: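 hTfR captured on Ni-NTA chip then amine-coupled; peptides run single-cycle kinetics at 5–100 nM in 10 mM HEPES pH 8.0, 150 mM NaCl, 0.05% Tween 20, 0.1% BSA, 1.0% DMSO. KD from least-squares curve fitting of sensorgrams.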

[1] = SPR, hTfR No. 894 variants with PEG12c linker (Table 2), read-out: KD

Sequence of transferrin receptor (hTfR) (P02786 whole entry): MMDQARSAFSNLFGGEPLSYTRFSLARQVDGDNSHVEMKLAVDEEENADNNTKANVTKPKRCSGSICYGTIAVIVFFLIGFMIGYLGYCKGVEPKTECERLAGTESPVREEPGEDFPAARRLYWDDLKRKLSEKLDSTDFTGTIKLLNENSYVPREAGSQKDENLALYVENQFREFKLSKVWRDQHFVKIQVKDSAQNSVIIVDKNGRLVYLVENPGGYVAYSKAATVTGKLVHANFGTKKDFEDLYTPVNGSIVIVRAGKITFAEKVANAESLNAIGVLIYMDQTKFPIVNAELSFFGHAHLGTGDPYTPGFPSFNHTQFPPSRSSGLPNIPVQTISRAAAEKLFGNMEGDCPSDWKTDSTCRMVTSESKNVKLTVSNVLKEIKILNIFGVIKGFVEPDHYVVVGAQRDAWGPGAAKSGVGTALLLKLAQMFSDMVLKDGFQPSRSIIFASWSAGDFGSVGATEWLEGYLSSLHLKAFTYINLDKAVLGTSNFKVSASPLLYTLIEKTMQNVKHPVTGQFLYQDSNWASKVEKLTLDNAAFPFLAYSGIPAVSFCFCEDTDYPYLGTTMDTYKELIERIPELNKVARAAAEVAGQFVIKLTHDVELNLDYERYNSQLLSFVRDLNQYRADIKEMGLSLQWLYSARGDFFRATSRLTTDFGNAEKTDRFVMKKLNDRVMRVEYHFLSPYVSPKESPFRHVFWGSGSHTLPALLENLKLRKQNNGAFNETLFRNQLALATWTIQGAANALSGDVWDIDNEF

- pKd (SPR, hTfR, class symbols A-D, read-out: KD): 7.00 to 9.00
Compound: CC[C@H](C)[C@@H]1NC(=O)[C@H](Cc2ccc(O)cc2)NC(=O)[C@H](Cc2ccc(O)cc2)NC(=O)[C@H](CC(N)=O)NC(=O)[C@H](Cc2cn(CC(=O)O)c3ccccc23)NC(=O)[C@H](C(C)C)NC(=O)[C@H](Cc2ccccc2)N(C)C(=O)[C@H](C(C)C)NC(=O)[C@H](C)NC(=O)CSC[C@@H](C(N)=O)NC(=O)[C@H](Cc2ccc(O)cc2)N(C)C(=O)[C@H](Cc2ccc(O)cc2)NC(=O)[C@H](CCCNC(=N)N)NC(=O)C(C)(C)NC(=O)[C@H]([C@@H](C)CC)NC1=O [compound 469]

- pKd (surface plasmon resonance, hTfR, read-out: KD value for hTfR by SPR (class symbol)): 7.00 to 9.00
Compound: CC[C@H](C)[C@@H]1NC(=O)[C@H](Cc2ccc(OC)cc2)NC(=O)[C@H](Cc2ccc(O)cc2)NC(=O)[C@H](CC(N)=O)NC(=O)[C@H](Cc2c[nH]c3ccccc23)N(C)C(=O)[C@H](C(C)C)NC(=O)[C@H](Cc2cccc(Cl)c2)N(C)C(=O)[C@H](C(C)C)NC(=O)[C@H](C)NC(=O)CSC[C@@H](C(N)=O)NC(=O)[C@H](Cc2ccc(O)cc2)N(C)C(=O)[C@H](Cc2ccccc2)NC(=O)[C@H](CCCNC(=N)N)NC(=O)[C@H](CCCNC(=N)N)N(C)C(=O)[C@H]([C@@H](C)CC)NC1=O [compound 381]

Continued, compound first:

Compound: CCCCC[C@@H]1NC(=O)[C@H](C)NC(=O)CSC[C@@H](C(=O)NCCOCCOCCOCCOCCOCCOCCOCCOCCOCCOCCOCCOCCC(N)=O)NC(=O)[C@H](Cc2ccc(O)cc2)N(C)C(=O)[C@H](Cc2ccc(O)cc2)NC(=O)[C@H](CCCNC(=N)N)NC(=O)[C@H](CCCNC(=N)N)NC(=O)[C@H]([C@@H](C)CC)NC(=O)[C@H]([C@@H](C)CC)NC(=O)[C@H](Cc2ccc(O)cc2)NC(=O)[C@H](Cc2ccc(O)cc2)NC(=O)[C@H](CC(N)=O)NC(=O)[C@H](Cc2c[nH]c3ccccc23)NC(=O)[C@H](C(C)C)NC(=O)[C@H](Cc2ccccc2)N(C)C1=O [compound 130] ({CH2CO}-A[Ahp(2)][NMeF]VWNYYIIRRY[NMeY]C[PEG12]-NH2; thioether N-15)
- pKd [1]: 7.00 to 9.00

Compound: CC[C@H](C)[C@@H]1NC(=O)[C@H](Cc2ccc(OC)cc2)NC(=O)[C@H](Cc2ccc(O)cc2)NC(=O)[C@H](CC(N)=O)NC(=O)[C@H](Cc2c[nH]c3ccccc23)N(C)C(=O)[C@H](C(C)C)NC(=O)[C@H](Cc2cccc(Cl)c2)N(C)C(=O)[C@H](CCC(=O)O)NC(=O)[C@H](C)NC(=O)CSC[C@@H](C(=O)NCC(=O)NCC(=O)NCC(=O)NCC(=O)N[C@@H](CO)C(=O)N[C@@H](CO)C(=O)N[C@@H](CS)C(N)=O)NC(=O)[C@H](Cc2ccc(O)cc2)N(C)C(=O)[C@H](Cc2ccccc2)NC(=O)[C@@H](CCCNC(=N)N)NC(=O)[C@H](CCCNC(=N)N)NC(=O)[C@H](CCC(=O)O)NC1=O [compound 223]
- pKd (SPR, peptides, linker-added peptides and FITC conjugates, Patent ID 203-230, read-out: KD): 7.00 to 9.00

Compound: CC[C@H](C)[C@@H]1NC(=O)[C@H](Cc2ccc(O)cc2)NC(=O)[C@H](Cc2ccc(O)cc2)NC(=O)[C@H](CC(N)=O)NC(=O)[C@H](Cc2c[nH]c3ccccc23)NC(=O)[C@H](C(C)C)NC(=O)[C@H](Cc2cccc(Cl)c2)N(C)C(=O)[C@H](C(C)C)NC(=O)[C@H](C)NC(=O)CSC[C@@H](C(N)=O)NC(=O)[C@H](Cc2ccc(O)cc2)N(C)C(=O)[C@H](Cc2ccccc2)NC(=O)[C@H](CCCCN)NC(=O)[C@H](CC(=O)O)NC(=O)[C@H]([C@@H](C)CC)NC1=O [compound 307]
- pKd (surface plasmon resonance, peptide vs hTfR, read-out: KD value, hTfR binding by SPR (class symbol)): 7.00 to 9.00

Compound: CC[C@H](C)[C@@H]1NC(=O)[C@H](Cc2ccc(O)cc2)NC(=O)[C@H](Cc2c[nH]c3ccccc23)NC(=O)[C@H](CC(N)=O)NC(=O)[C@H](Cc2c[nH]c3ccccc23)NC(=O)[C@H](C(C)C)NC(=O)[C@H](Cc2ccccc2)N(C)C(=O)[C@H](C(C)C)NC(=O)[C@H](C)NC(=O)CSC[C@@H](C(=O)NCCOCCOCCOCCOCCOCCOCCOCCOCCOCCOCCOCCOCCC(N)=O)NC(=O)[C@H](Cc2ccc(O)cc2)N(C)C(=O)[C@H](Cc2ccc(O)cc2)NC(=O)[C@H](CCCNC(=N)N)NC(=O)[C@H](CCCNC(=N)N)NC(=O)[C@H]([C@@H](C)CC)NC1=O [compound 125] ({CH2CO}-AV[NMeF]VWNWYIIRRY[NMeY]C[PEG12]-NH2; thioether N-15)
- pKd [1]: 7.00 to 9.00
